One may read the IC50 as the concentration that inhibits the measured activity by half.

The source of these data is patent publication US7696218B2, “Substituted 1,3-dialkyl-2,4-dioxo-6-(arylamino)-1,2,3,4-tetrahydropyrimidine-5-hydroxamic acid inhibitors of MAPK/ERK kinase” (Takeda San Diego, Inc., priority 2006, dated 2010).

This experiment deals with T1, MEK2 (Homo sapiens, UniProt P36507, S222E/S226D).
T1 construct: 6-histidine tag (N); made in house; host or cells: Spodoptera frugiperda Sf9 (baculovirus) for MEK2; E. coli for ERK1
T1 sequence (P36507 with tags, fused parts or gaps S222E/S226D): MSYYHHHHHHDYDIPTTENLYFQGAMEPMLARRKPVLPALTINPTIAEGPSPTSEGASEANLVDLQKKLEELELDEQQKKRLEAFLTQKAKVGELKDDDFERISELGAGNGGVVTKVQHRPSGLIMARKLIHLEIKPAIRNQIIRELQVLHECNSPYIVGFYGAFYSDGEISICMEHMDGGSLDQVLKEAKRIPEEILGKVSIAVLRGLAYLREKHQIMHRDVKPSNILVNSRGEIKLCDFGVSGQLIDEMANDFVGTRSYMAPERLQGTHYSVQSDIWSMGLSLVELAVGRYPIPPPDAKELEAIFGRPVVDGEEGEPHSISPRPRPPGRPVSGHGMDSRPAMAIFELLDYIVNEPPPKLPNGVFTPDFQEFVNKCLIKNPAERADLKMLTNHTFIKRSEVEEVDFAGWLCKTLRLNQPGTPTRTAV
Put plainly: MEK2 inhibition assay, fluorescence polarization with IMAP beads (ERK1 / FI-Erktide substrate). It is filed as biochemical. Conditions: 4 nM MEK2, 25 nM ERK1, 400 μM ATP, 500 nM FI-Erktide, 1% DMSO, 22 min at room temperature; values given as ranges; read-out: IC50 of Exemplified Compounds Against MEK2. An excerpt:
For MEK2, DNA encoding residues 1-400 (S222E/S226D) of the full-length sequence of the human enzyme may be amplified by PCR and cloned into pFastbac (Invitrogen), which incorporates a 6-histidine tag at the N-terminus. The two mutations, S222E and S226D, may be obtained by quick change PCR. SEQ ID NO: 3 corresponds to residues 1-400 with mutations S222E/S226D, and with the N-terminal 6-histidine tag and SEQ ID NO: 4 is the DNA sequence that was used to encode SEQ ID NO: 3.
Recombinant baculovirus incorporating the MEK1 and MEK2 constructs may be generated by transposition using the Bac-to-Bac system (Invitrogen). High-titer viral stocks may be generated by infection of Spodoptera frugiperda Sf9 cells; the expression of recombinant protein may be carried out by infection of Spodoptera frugiperda Sf9 (Invitrogen) in 5L Wave Bioreactors (Wave Biotech).
Recombinant protein may be isolated from cellular extracts by passage over ProBond resin (Invitrogen). Partially purified extracts of all MEK1 may then be further purified by high pressure liquid chromatography over a SEC2000 gel filtration resin. The purity of MEK1 and MEK2 proteins may be determined on denaturing SDS-PAGE gel. Purified MEK1 and MEK2 may then be concentrated to a final concentration of 3.4 mg/ml and 5.4 mg/ml, respectively. The proteins may be either stored at −78° C. in a buffer containing 50 mM TRIS-HCl pH 7.6, 250 mM NaCl, 0.1 mM EDTA and 0.125 mM TCEP or at −20° C. in the presence of glycerol (final concentration of glycerol at 50%).
The inhibitory properties of compounds relative to MEK1 or MEK2 may be determined using a black 384-well-plate format under the following reaction conditions: 50 mM HEPES pH 7.3, 10 mM NaCl, 10 mM MgCl2, 0.01% Brij35, 1 nM MEK1 or 4 nM MEK2, 25 nM ERK1, 400 μM ATP, 500 nM IPTTPITTYFFFK-5FAM-COOH (FI-Erktide), and 1% DMSO. Reaction product is determined quantitatively by fluorescent polarization using progressive IMAP beads from Molecular Devices.
The assay reaction may be initiated as follows: 2 μl of the mixture of 1.5 μM FI-Erktide and 75 nM ERK with 2 μl of inhibitor (2 fold serial dilutions for 11 data points for each inhibitor) containing 3% DMSO were added to each well of the plate, followed by the addition of 2 μl of the mixture of 3 nM MEK1 or 12 nM MEK2 and 1200 μM ATP to initiate the reaction (final enzyme concentration was 1 nM for MEK1 or 4 nM for MEK2). The reaction mixture may then be incubated at room temperature for 22 min, and quenched and developed by addition of 20 μl of 1:200 dilution of progressive IMAP beads (Molecular Devices) in 80% buffer A, 20% bufferB and 0.003% Tween 20. Fluorescence polarization of the resulting reaction mixtures may be measured after a 1 hour incubation at room temperature.
IC50 values may be calculated by non-linear curve fitting of the compound concentrations and fluorescence polarization signal to the standard IC50 equation.
A general note: Polarisation of emitted light reports the rotation of a fluorescent probe.
Consider `Cn1c(Nc2ccc(I)cc2F)c(C(=O)NOC[C@H](O)CO)c(=O)n(C)c1=O` [Example 2, (R)-N-(2,3-dihydroxypropoxy)-6-(2-fluoro-4-iodophenylamino)-1,3-dimethyl-2,4-dioxo-1,2,3,4-tetrahydropyrimidine-5-carboxamide], for which the IC50 is at most 500 nM.

On to `Cn1c(Nc2ccc(I)cc2F)c(C(=O)NOCCO)c(=O)n(C)c1=O` [Example 3, 6-(2-fluoro-4-iodophenylamino)-N-(2-hydroxyethoxy)-1,3-dimethyl-2,4-dioxo-1,2,3,4-tetrahydropyrimidine-5-carboxamide], for which the 50% inhibitory concentration (IC50) is at most 500 nM.

Regarding `Cn1c(Nc2ccc(I)cc2F)c(C(=O)NOCC2CC2)c(=O)n(C)c1=O` [Example 4, N-(cyclopropylmethoxy)-6-(2-fluoro-4-iodophenylamino)-1,3-dimethyl-2,4-dioxo-1,2,3,4-tetrahydropyrimidine-5-carboxamide], the IC50 was 501 to 2500 nM.

With `CONC(=O)c1c(Nc2ccc(I)cc2F)n(C)c(=O)n(C)c1=O` [Example 5, 6-(2-Fluoro-4-iodophenylamino)-N-methoxy-1,3-dimethyl-2,4-dioxo-1,2,3,4-tetrahydropyrimidine-5-carboxamide], the IC50 fell in the range of 501 to 2500 nM.

In the case of `Cn1c(Nc2ccc(I)cc2F)c(C(=O)NO)c(=O)n(C)c1=O` [Example 6, 6-(2-Fluoro-4-iodophenylamino)-N-hydroxy-1,3-dimethyl-2,4-dioxo-1,2,3,4-tetrahydropyrimidine-5-carboxamide], the IC50 is at most 500 nM.

Consider `Cn1c(Nc2ccc(I)cc2F)c(C(=O)NN)c(=O)n(C)c1=O` [Example 9, 6-(2-Fluoro-4-iodophenylamino)-1,3-dimethyl-2,4-dioxo-1,2,3,4-tetrahydropyrimidine-5-carbohydrazide], for which the concentration for half-maximal inhibition (IC50) is at most 500 nM.

On to `CC(=O)c1c(Nc2ccc(I)cc2F)n(C)c(=O)n(C)c1=O` [Example 10, 5-Acetyl-6-(2-fluoro-4-iodophenylamino)-1,3-dimethylpyrimidine-2,4(1H,3H)-dione], for which the IC50 was 501 to 2500 nM.

In the case of `Cn1c(Nc2ccc(I)cc2F)c(C(=O)c2ccco2)c(=O)n(C)c1=O` [Example 11, 6-(2-Fluoro-4-iodophenylamino)-5-(furan-2-carbonyl)-1,3-dimethylpyrimidine-2,4(1H,3H)-dione], the IC50 was 2500 to 25000 nM.

Turning to `COCC(=O)c1c(Nc2ccc(I)cc2F)n(C)c(=O)n(C)c1=O` [Example 12, 6-(2-Fluoro-4-iodophenylamino)-5-(2-methoxyacetyl)-1,3-dimethylpyrimidine-2,4(1H,3H)-dione], the half-maximal inhibitory concentration (IC50) was 2500 to 25000 nM.

Regarding `COCCOCC(=O)c1c(Nc2ccc(I)cc2F)n(C)c(=O)n(C)c1=O` [Example 13, 6-(2-Fluoro-4-iodophenylamino)-5-(2-(2-methoxyethoxy)acetyl)-1,3-dimethylpyrimidine-2,4(1H,3H)-dione], the IC50 was in the range of 2500 to 25000 nM.

In the case of `CC(=O)OCC(=O)c1c(Nc2ccc(I)cc2F)n(C)c(=O)n(C)c1=O` [Example 14, 2-(6-(2-Fluoro-4-iodophenylamino)-1,3-dimethyl-2,4-dioxo-1,2,3,4-tetrahydropyrimidin-5-yl)-2-oxoethyl acetate], the half-inhibitory concentration (IC50) is over 25000 nM.

For the compound `Cn1c(Nc2ccc(I)cc2F)c(C(=O)CO)c(=O)n(C)c1=O` [Example 15, 6-(2-Fluoro-4-iodophenylamino)-5-(2-hydroxyacetyl)-1,3-dimethylpyrimidine-2,4(1H,3H)-dione], the IC50 was in the range of 501 to 2500 nM.

With `Cn1c(Nc2ccc(I)cc2F)c(C(N)=O)c(=O)n(C)c1=O` [Example 16, 6-(2-Fluoro-4-iodophenylamino)-1,3-dimethyl-2,4-dioxo-1,2,3,4-tetrahydropyrimidine-5-carboxamide], the half-inhibitory concentration (IC50) was at most 500 nM.

On to `Cc1cc(I)ccc1Nc1c(C(N)=O)c(=O)n(C)c(=O)n1C` [Example 17, 6-(4-Iodo-2-methylphenylamino)-1,3-dimethyl-2,4-dioxo-1,2,3,4-tetrahydropyrimidine-5-carboxamide], for which the concentration for half-maximal inhibition (IC50) fell in the range of 501 to 2500 nM.

As to `Cn1c(Nc2ccc(Br)cc2Cl)c(C(N)=O)c(=O)n(C)c1=O` [Example 18, 6-(4-Bromo-2-chlorophenylamino)-1,3-dimethyl-2,4-dioxo-1,2,3,4-tetrahydropyrimidine-5-carboxamide], the IC50 was 2500 to 25000 nM.

Take `Cn1c(Nc2ccc(Br)cc2F)c(C(N)=O)c(=O)n(C)c1=O` [Example 19, 6-(4-Bromo-2-fluorophenylamino)-1,3-dimethyl-2,4-dioxo-1,2,3,4-tetrahydropyrimidine-5-carboxamide]: the IC50 lay in the range of 2500 to 25000 nM.

Turning to `CCOC(=O)c1c(Nc2ccc(I)cc2F)n(C)c(=O)n(C)c1=O` [Example 20, Ethyl 6-(2-fluoro-4-iodophenylamino)-1,3-dimethyl-2,4-dioxo-1,2,3,4-tetrahydropyrimidine-5-carboxylate], the IC50 is over 25000 nM.

For `CCOC(=O)c1c(Nc2ccccc2F)n(C)c(=O)n(C)c1=O` [Example 21, Ethyl 6-(2-fluorophenylamino)-1,3-dimethyl-2,4-dioxo-1,2,3,4-tetrahydropyrimidine-5-carboxylate], the concentration for half-maximal inhibition (IC50) was over 25000 nM.

Consider `CCOC(=O)c1c(Nc2ccc(Br)cc2Cl)n(C)c(=O)n(C)c1=O` [Example 22, Ethyl 6-(4-bromo-2-chlorophenylamino)-1,3-dimethyl-2,4-dioxo-1,2,3,4-tetrahydropyrimidine-5-carboxylate], for which the IC50 was over 25000 nM.

For the compound `Cn1c(Nc2ccc(I)cc2Cl)c(C(=O)NOCCO)c(=O)n(C)c1=O` [Example 25, 6-(2-chloro-4-iodophenylamino)-N-(2-hydroxyethoxy)-1,3-dimethyl-2,4-dioxo-1,2,3,4-tetrahydropyrimidine-5-carboxamide], the IC50 was at most 500 nM.

As for `Cn1c(Nc2ccc(I)cc2Cl)c(C(=O)NOC[C@H](O)CO)c(=O)n(C)c1=O` [Example 27, (R)-6-(2-chloro-4-iodophenylamino)-N-(2,3-dihydroxypropoxy)-1,3-dimethyl-2,4-dioxo-1,2,3,4-tetrahydropyrimidine-5-carboxamide], the IC50 is at most 500 nM.

As to `Cn1c(Nc2ccc(I)cc2F)c(C(=O)NOC(CO)CO)c(=O)n(C)c1=O` [Example 28, N-(1,3-dihydroxypropan-2-yloxy)-6-(2-fluoro-4-iodophenylamino)-1,3-dimethyl-2,4-dioxo-1,2,3,4-tetrahydropyrimidine-5-carboxamide], the concentration for half-maximal inhibition (IC50) was at most 500 nM.

In the case of `Cn1c(Nc2ccc(I)cc2F)c(C(=O)NOCCCO)c(=O)n(C)c1=O` [Example 29, 6-(2-Fluoro-4-iodophenylamino)-N-(3-hydroxypropoxy)-1,3-dimethyl-2,4-dioxo-1,2,3,4-tetrahydropyrimidine-5-carboxamide], the IC50 lay within 501 to 2500 nM.

Take `Cc1cc(C(=O)c2c(Nc3ccc(I)cc3F)n(C)c(=O)n(C)c2=O)no1` [Example 30, 6-(2-Fluoro-4-iodophenylamino)-1,3-dimethyl-5-(5-methylisoxazole-3-carbonyl)pyrimidine-2,4(1H,3H)-dione]: the half-inhibitory concentration (IC50) is over 25000 nM.

As for `Cn1c(Nc2ccc(I)cc2F)c(C(=O)C(=O)O)c(=O)n(C)c1=O` [Example 31, 2-(6-(2-Fluoro-4-iodophenylamino)-1,3-dimethyl-2,4-dioxo-1,2,3,4-tetrahydropyrimidin-5-yl)-2-oxoacetic acid], the 50% inhibitory concentration (IC50) is over 25000 nM.

Turning to `Cn1c(Nc2ccc(I)cc2F)c(C(=O)N2CC(O)CO2)c(=O)n(C)c1=O` (centres unmarked) [Example 32, 6-(2-Fluoro-4-iodophenylamino)-5-(4-hydroxyisoxazolidine-2-carbonyl)-1,3-dimethylpyrimidine-2,4(1H,3H)-dione], the half-maximal inhibitory concentration (IC50) is 2500 to 25000 nM.
